These results are taken from publication PMC3042376, “The elicitation of a systemic resistance by Pseudomonas putida BTP1 in tomato involves the stimulation of two lipoxygenase isoforms” (BMC Plant Biology, 2011).

The experiment deals with T1, TomLOXF (Solanum lycopersicum, UniProt C0KKU8).
T1 construct: gene loxF; predicted chloroplast transit peptide (54 residues, ChloroP) excluded; N-terminal His tag of pET28-a kept; E. coli BL21; about 100 kDa; full precursor 903 residues; partially purified on nickel
T1 sequence (C0KKU8 55-902): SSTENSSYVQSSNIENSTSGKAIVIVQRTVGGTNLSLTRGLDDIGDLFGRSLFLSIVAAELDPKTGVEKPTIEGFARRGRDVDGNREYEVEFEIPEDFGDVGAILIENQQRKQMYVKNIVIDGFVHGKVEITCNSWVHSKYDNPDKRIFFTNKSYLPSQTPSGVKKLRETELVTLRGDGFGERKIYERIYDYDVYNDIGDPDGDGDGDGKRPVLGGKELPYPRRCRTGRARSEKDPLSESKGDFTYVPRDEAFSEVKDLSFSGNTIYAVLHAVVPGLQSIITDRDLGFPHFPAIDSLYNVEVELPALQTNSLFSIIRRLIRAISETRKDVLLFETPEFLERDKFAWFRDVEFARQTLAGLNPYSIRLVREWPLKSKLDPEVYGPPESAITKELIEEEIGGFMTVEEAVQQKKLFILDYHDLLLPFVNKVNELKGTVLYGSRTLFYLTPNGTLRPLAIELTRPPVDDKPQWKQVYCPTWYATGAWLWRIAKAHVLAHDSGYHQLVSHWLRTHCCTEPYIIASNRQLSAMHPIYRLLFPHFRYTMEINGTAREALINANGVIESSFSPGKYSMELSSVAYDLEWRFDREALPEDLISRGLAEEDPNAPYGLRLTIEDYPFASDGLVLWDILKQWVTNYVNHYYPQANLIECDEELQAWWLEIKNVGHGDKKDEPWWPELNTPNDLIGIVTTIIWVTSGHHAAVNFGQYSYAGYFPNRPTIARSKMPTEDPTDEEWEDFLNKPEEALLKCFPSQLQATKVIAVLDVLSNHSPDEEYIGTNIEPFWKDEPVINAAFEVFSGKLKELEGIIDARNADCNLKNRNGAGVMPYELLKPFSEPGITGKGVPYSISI
As to the kind of experiment: hydroperoxide formation at […] nm; products by HPLC. The format is biochemical. As to conditions: pH 6.0, room temperature, oxygenated phosphate buffer, partially purified enzyme.

Take `CCCCC/C=C\C/C=C\CCCCCCCC(=O)O` [C18:2, linoleic acid]: the “hydroperoxide formation at 234 nm; products by HPLC” value (product 13-HPOD, weaker substrate) was “Partially-purified TOMLOXF showed a higher activity on linolenic acid than on linoleic acid”.

As for `CC/C=C\C/C=C\C/C=C\CCCCCCCC(=O)O` [C18:3, linolenic acid], the “hydroperoxide formation at 234 nm; products by HPLC” value (product 13-HPOT, preferred substrate) is “Partially-purified TOMLOXF showed a higher activity on linolenic acid than on linoleic acid”.
